# According to ChEMBL document CHEMBL4507300 (2021):
# pKi: −log10 of the molar value.
# Legend:
# [1] = biological target: Dual specificity protein kinase CLK3 (Homo sapiens) (UniProt P49761); settings: Compound concentration 1000.0 nM
# [2] = biological target: Serine/threonine-protein kinase PknB (Mycobacterium tuberculosis) (UniProt P9WI81); settings: Compound concentration 1000.0 nM
# [3] = biological target: G protein-coupled receptor kinase 4 (Homo sapiens) (UniProt P32298); settings: Compound concentration 1000.0 nM
# [4] = biological target: Transient receptor potential cation channel subfamily M member 6 (Homo sapiens) (UniProt Q9BX84); settings: Compound concentration 1000.0 nM
# [5] = biological target: Serine/threonine-protein kinase Sgk3 (Homo sapiens) (UniProt Q96BR1); settings: Compound concentration 1000.0 nM
# [6] = biological target: Calcium/calmodulin-dependent protein kinase type II subunit delta (Homo sapiens) (UniProt Q13557); settings: Compound concentration 1000.0 nM
# Chain of Calcium/calmodulin-dependent protein kinase type II subunit delta (Homo sapiens) (Q13557 whole entry): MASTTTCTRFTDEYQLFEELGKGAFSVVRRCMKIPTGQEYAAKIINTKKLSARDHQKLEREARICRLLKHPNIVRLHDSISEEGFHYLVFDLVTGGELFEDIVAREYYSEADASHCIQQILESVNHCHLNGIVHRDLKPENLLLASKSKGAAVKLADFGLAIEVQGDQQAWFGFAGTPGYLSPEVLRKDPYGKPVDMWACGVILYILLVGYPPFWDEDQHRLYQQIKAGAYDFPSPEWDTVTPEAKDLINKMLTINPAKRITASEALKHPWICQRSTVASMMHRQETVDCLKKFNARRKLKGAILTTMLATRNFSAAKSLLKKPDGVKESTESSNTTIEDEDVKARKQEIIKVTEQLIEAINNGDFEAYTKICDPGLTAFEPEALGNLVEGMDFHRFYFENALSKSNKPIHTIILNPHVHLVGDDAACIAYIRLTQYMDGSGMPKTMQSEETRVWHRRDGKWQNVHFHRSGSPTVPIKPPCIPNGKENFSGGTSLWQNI
# [7] = biological target: Aurora kinase C (Homo sapiens) (UniProt Q9UQB9); settings: Compound concentration 1000.0 nM
# [8] = biological target: Serine/threonine-protein kinase 32C (Homo sapiens) (UniProt Q86UX6); settings: Compound concentration 1000.0 nM
# [9] = tested on: Phosphatidylinositol 4,5-bisphosphate 3-kinase catalytic subunit alpha isoform (Homo sapiens), P42336 [E545K]; settings: Compound concentration 1000.0 nM
# [10] = tested on: Phosphatidylinositol 4,5-bisphosphate 3-kinase catalytic subunit alpha isoform (Homo sapiens), P42336 [H1047L]; settings: Compound concentration 1000.0 nM
# Chain of Phosphatidylinositol 4,5-bisphosphate 3-kinase catalytic subunit alpha isoform (Homo sapiens), P42336 [H1047L] (P42336 whole entry H1047L, canonical isoform): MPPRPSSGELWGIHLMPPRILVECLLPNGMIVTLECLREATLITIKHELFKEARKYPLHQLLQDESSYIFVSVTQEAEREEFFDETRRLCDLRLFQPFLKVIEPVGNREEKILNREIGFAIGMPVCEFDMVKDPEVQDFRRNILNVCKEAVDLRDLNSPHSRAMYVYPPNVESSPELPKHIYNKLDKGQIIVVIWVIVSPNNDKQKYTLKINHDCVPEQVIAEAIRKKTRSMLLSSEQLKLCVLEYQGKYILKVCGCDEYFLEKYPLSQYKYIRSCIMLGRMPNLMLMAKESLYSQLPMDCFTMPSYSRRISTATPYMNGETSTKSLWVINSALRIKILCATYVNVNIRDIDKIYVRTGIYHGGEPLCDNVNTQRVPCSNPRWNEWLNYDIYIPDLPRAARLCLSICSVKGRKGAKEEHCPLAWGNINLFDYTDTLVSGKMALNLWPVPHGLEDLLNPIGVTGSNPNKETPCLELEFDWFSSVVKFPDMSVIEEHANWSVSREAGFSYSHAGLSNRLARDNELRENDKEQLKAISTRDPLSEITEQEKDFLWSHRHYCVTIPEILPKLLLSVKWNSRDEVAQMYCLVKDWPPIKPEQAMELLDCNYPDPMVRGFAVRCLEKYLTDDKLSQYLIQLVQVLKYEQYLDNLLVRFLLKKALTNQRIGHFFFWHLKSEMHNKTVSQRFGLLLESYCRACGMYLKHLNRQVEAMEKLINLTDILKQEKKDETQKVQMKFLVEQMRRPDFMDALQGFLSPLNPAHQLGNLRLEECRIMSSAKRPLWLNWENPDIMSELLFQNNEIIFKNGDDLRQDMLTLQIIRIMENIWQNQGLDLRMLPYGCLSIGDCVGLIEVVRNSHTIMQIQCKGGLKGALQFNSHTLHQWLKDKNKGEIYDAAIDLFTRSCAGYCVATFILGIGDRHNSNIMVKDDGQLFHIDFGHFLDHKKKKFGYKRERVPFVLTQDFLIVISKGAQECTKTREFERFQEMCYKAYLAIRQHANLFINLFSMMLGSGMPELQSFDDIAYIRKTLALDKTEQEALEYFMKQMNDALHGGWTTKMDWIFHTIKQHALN
# [11] = biological target: Serine/threonine-protein kinase TAO2 (Homo sapiens) (UniProt Q9UL54); settings: Compound concentration 1000.0 nM
# [12] = biological target: Receptor-interacting serine/threonine-protein kinase 1 (Homo sapiens) (UniProt Q13546); settings: Compound concentration 1000.0 nM
# [13] = biological target: Serine/threonine-protein kinase Nek2 (Homo sapiens) (UniProt P51955); settings: Compound concentration 1000.0 nM
# [14] = biological target: Ribosomal protein S6 kinase alpha-5 (Homo sapiens) (UniProt O75582); settings: Compound concentration 1000.0 nM
# Chain of Ribosomal protein S6 kinase alpha-5 (Homo sapiens) (O75582 whole entry, looked up): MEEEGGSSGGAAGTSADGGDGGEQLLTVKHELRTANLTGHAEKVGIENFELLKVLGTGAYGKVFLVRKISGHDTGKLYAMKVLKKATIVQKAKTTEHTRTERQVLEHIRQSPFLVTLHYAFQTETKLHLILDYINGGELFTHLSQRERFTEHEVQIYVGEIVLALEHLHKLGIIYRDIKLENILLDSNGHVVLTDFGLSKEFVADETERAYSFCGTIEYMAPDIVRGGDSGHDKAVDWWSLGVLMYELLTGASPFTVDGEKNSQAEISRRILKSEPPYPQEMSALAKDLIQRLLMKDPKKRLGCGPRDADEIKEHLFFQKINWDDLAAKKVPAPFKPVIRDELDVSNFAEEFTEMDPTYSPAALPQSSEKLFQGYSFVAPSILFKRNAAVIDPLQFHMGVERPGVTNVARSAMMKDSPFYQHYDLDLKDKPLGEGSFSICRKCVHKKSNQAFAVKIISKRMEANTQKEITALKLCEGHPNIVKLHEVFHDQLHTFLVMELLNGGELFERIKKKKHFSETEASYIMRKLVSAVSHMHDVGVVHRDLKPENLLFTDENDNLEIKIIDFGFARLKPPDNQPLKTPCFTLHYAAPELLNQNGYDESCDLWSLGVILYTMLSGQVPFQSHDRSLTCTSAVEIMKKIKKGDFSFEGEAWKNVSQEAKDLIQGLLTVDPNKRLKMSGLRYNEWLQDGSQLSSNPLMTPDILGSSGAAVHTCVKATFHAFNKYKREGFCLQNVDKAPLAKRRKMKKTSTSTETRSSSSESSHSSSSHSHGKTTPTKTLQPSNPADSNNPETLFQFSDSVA
# [15] = biological target: Myosin light chain kinase family member 4 (Homo sapiens) (UniProt Q86YV6); settings: Compound concentration 1000.0 nM
# [16] = biological target: Casein kinase I isoform alpha-like (Homo sapiens) (UniProt Q8N752); settings: Compound concentration 1000.0 nM
# [17] = biological target: Cytoplasmic tyrosine-protein kinase BMX (Homo sapiens) (UniProt P51813); settings: Compound concentration 1000.0 nM
# [18] = tested on: Epidermal growth factor receptor (Homo sapiens), P00533 [L861Q]; settings: Compound concentration 1000.0 nM
# [19] = biological target: Serine/threonine-protein kinase ULK1 (Homo sapiens) (UniProt O75385); settings: Compound concentration 1000.0 nM
# [20] = biological target: Tyrosine-protein kinase ITK/TSK (Homo sapiens) (UniProt Q08881); settings: Compound concentration 1000.0 nM
# [21] = biological target: Mitogen-activated protein kinase kinase kinase 7 (Homo sapiens) (UniProt O43318); settings: Compound concentration 1000.0 nM
# Chain of Mitogen-activated protein kinase kinase kinase 7 (Homo sapiens) (O43318 whole entry): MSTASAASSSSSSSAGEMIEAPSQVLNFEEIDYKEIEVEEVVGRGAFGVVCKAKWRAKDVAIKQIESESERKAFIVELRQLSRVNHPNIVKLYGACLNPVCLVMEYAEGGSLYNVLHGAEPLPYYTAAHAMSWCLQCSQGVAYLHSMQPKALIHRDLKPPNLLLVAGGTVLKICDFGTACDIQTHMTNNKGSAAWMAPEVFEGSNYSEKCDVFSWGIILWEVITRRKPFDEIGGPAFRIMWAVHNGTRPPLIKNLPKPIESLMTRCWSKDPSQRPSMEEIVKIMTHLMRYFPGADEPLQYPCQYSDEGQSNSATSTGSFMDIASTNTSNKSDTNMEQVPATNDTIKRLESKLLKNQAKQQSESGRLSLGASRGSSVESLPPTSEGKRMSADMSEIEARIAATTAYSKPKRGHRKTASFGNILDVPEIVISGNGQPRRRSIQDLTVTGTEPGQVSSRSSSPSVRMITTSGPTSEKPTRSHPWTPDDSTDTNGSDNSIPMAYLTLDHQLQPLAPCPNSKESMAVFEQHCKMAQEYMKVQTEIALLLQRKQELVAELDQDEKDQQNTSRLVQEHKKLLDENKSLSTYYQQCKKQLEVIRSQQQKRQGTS
# [22] = biological target: RAF proto-oncogene serine/threonine-protein kinase (Homo sapiens) (UniProt P04049); settings: Compound concentration 1000.0 nM
# [23] = biological target: Maternal embryonic leucine zipper kinase (Homo sapiens) (UniProt Q14680); settings: Compound concentration 1000.0 nM
# [24] = biological target: Insulin-like growth factor 1 receptor (Homo sapiens) (UniProt P08069); settings: Compound concentration 1000.0 nM
# [25] = biological target: Interleukin-1 receptor-associated kinase 4 (Homo sapiens) (UniProt Q9NWZ3); settings: Compound concentration 1000.0 nM
# [26] = biological target: Sigma intracellular receptor 2 (Homo sapiens, UniProt Q5BJF2); experiment: GPCRScan assay: inhibition of Sigma 2; design: radioligand conc. used [nm] 5.0, parental cells HEKT
# Chain of Sigma intracellular receptor 2 (Q5BJF2 whole entry): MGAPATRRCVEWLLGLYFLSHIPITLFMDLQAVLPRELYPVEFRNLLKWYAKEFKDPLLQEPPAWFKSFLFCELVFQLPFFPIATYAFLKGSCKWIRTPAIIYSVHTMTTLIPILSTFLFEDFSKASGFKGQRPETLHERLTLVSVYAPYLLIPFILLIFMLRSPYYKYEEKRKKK
# [27] = biological target: Calcium/calmodulin-dependent protein kinase kinase 2 (Homo sapiens) (UniProt Q96RR4); settings: Compound concentration 1000.0 nM
# [28] = biological target: Atypical kinase COQ8A, mitochondrial (Homo sapiens) (UniProt Q8NI60); settings: Compound concentration 1000.0 nM
# Chain of Atypical kinase COQ8A, mitochondrial (Homo sapiens) (Q8NI60 163-647 limits assumed): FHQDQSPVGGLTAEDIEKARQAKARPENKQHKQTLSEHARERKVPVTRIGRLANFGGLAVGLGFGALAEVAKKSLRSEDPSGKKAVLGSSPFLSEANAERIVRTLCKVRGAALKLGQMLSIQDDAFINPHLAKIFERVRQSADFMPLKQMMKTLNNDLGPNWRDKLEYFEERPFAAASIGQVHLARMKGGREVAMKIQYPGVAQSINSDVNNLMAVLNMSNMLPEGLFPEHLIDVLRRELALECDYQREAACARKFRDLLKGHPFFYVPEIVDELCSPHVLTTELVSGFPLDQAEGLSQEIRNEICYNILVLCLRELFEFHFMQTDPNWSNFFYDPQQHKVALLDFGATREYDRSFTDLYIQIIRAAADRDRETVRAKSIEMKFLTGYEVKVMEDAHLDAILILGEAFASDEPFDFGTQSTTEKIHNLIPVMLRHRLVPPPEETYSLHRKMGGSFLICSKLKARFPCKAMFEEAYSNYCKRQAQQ
# [29] = biological target: Dual specificity mitogen-activated protein kinase kinase 6 (Homo sapiens) (UniProt P52564); settings: Compound concentration 1000.0 nM
# [30] = biological target: Aurora kinase A (Homo sapiens) (UniProt O14965); settings: Compound concentration 1000.0 nM
# [31] = biological target: MAP kinase-interacting serine/threonine-protein kinase 1 (Homo sapiens) (UniProt Q9BUB5); settings: Compound concentration 1000.0 nM
# [32] = biological target: Serine/threonine-protein kinase MARK2 (Homo sapiens) (UniProt Q7KZI7); settings: Compound concentration 1000.0 nM
# [33] = biological target: Fibroblast growth factor receptor 1 (Homo sapiens) (UniProt P11362); settings: Compound concentration 1000.0 nM
# [34] = biological target: Serine/threonine-protein kinase SBK1 (Homo sapiens) (UniProt Q52WX2); settings: Compound concentration 1000.0 nM
# [35] = biological target: Mitogen-activated protein kinase 10 (Homo sapiens) (UniProt P53779); settings: Compound concentration 1000.0 nM
# [36] = biological target: Serine/threonine-protein kinase PLK2 (Homo sapiens) (UniProt Q9NYY3); settings: Compound concentration 1000.0 nM
# [37] = biological target: Tyrosine-protein kinase JAK3 (Homo sapiens) (UniProt P52333); settings: Compound concentration 1000.0 nM
# [38] = biological target: Mitogen-activated protein kinase kinase kinase 4 (Homo sapiens) (UniProt Q9Y6R4); settings: Compound concentration 1000.0 nM
# [39] = biological target: Microtubule-associated serine/threonine-protein kinase 1 (Homo sapiens) (UniProt Q9Y2H9); settings: Compound concentration 1000.0 nM
# [40] = biological target: Beta-1 adrenergic receptor (Homo sapiens) (UniProt P08588); settings: Compound concentration 10.0 uM
# [41] = biological target: Ribosomal protein S6 kinase alpha-4 (Homo sapiens) (UniProt O75676); settings: Compound concentration 1000.0 nM
# [42] = biological target: Muscle, skeletal receptor tyrosine-protein kinase (Homo sapiens) (UniProt O15146); settings: Compound concentration 1000.0 nM
# Chain of Muscle, skeletal receptor tyrosine-protein kinase (Homo sapiens) (O15146 whole entry, canonical isoform): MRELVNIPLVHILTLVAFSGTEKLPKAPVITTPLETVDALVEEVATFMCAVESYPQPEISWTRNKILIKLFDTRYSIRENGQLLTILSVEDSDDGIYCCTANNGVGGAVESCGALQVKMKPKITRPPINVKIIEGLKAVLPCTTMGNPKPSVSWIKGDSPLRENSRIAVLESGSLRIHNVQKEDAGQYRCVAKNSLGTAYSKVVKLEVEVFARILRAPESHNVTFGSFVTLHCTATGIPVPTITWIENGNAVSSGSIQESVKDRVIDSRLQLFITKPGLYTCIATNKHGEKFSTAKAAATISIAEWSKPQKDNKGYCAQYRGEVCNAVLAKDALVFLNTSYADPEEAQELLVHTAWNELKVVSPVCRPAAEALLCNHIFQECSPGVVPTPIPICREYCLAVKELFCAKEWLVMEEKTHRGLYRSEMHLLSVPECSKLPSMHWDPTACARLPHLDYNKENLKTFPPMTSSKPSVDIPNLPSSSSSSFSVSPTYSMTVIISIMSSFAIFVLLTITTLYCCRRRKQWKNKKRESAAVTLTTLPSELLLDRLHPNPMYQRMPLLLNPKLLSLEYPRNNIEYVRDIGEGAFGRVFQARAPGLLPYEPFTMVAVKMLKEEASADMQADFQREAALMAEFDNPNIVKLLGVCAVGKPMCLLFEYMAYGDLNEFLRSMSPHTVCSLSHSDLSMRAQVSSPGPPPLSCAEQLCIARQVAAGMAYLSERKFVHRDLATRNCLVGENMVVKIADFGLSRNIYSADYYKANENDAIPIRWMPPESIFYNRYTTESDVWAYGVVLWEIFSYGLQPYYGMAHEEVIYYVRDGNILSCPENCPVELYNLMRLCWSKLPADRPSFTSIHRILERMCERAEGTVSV
# [43] = biological target: Casein kinase I isoform gamma-1 (Homo sapiens) (UniProt Q9HCP0); settings: Compound concentration 1000.0 nM
# [44] = biological target: Ephrin type-A receptor 3 (Homo sapiens) (UniProt P29320); settings: Compound concentration 1000.0 nM
# [45] = biological target: Receptor tyrosine-protein kinase erbB-3 (Homo sapiens) (UniProt P21860); settings: Compound concentration 1000.0 nM
# Chain of Dual specificity protein kinase CLK3 (Homo sapiens) (P49761 whole entry, looked up): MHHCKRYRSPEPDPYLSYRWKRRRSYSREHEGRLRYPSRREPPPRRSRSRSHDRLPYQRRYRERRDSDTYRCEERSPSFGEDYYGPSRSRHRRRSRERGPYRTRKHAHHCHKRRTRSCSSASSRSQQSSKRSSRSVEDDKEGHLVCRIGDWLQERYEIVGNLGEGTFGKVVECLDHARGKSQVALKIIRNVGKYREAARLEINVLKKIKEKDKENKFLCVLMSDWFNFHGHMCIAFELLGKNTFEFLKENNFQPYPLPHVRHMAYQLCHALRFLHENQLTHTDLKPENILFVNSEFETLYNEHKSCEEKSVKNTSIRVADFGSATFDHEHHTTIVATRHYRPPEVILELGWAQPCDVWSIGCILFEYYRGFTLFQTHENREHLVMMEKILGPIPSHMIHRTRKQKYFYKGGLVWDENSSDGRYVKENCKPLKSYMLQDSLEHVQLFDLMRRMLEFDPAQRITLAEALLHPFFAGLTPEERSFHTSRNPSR
smiles,measurement,setting,value
COc1cccc(CNC(=O)c2nc3scc(COCc4ccc(C(=O)O)cc4)c3c(=O)[nH]2)c1 [T-26c],residual activity,[1],100%
same,residual activity,[2],93%
same,residual activity,[3],72.1%
same,residual activity,[4],81.8%
same,residual activity,[5],69.2%
same,residual activity,[6],100%
same,residual activity,[7],67.3%
same,residual activity,[8],89.6%
same,residual activity,[9],86.3%
same,residual activity,[10],100%
same,residual activity,[11],59.8%
same,residual activity,[12],97.4%
same,residual activity,[13],100%
same,residual activity,[14],98%
same,residual activity,[15],100%
same,residual activity,[16],94.1%
same,residual activity,[17],100%
same,residual activity,[18],77.8%
same,residual activity,[19],74%
same,residual activity,[20],86.8%
same,residual activity,[21],60.2%
same,residual activity,[22],85.6%
same,residual activity,[23],100%
same,residual activity,[24],100%
same,residual activity,[25],85%
same,pKi,[26]; read-out: Ki,5.34
same,Ki,[26]; read-out: pKi (converted),3.98 µM
same,residual activity,[27],100%
same,residual activity,[28],100%
same,residual activity,[29],100%
same,residual activity,[30],80.9%
same,residual activity,[31],83.1%
same,residual activity,[32],100%
same,residual activity,[33],86.5%
same,residual activity,[34],53.7%
same,residual activity,[35],76.6%
same,residual activity,[36],56.7%
same,residual activity,[37],78.4%
same,residual activity,[38],86.6%
same,residual activity,[39],84.4%
same,inhibition,[40],29.9%
same,residual activity,[41],82.3%
same,residual activity,[42],100%
same,residual activity,[43],100%
same,residual activity,[44],91.3%
same,residual activity,[45],89.4%
